# Patent US7893288B2, “Poly-halogenated triazapentadiene compositions” (Board of Regents, The University of Texas System, priority 2007, dated 2011)
# Where “and” joins values, the source holds several entries; their conditions need not be identical. Identical values can stand only once. Marks after values point to notes of the source that are not given here.
# Columns and labels:
# Format in all cases: cell-based
# [1] = test system: Staphylococcus aureus (ATCC 25923); test: Disk sensitivity test (modified Kirby-Bauer), S. aureus;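 further: Compound-loaded filter disks on LB agar plates seeded with a confluent bacterial lawn, compound dissolved in DMSO, plates kept overnight at 37 °C, then inhibition zone around disk measured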
# Bacillus subtilis W168 [2] = test: Disk sensitivity test (modified Kirby-Bauer), B. subtilis;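 further: Compound-loaded filter disks on LB agar plates seeded with a bacterial lawn, plates held overnight at 37 °C, then the clear zone around each disk measured, compounds in DMSO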
# [3] = test system: Pseudomonas aeruginosa PAO1; test: Disk sensitivity test (modified Kirby-Bauer), P. aeruginosa;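 further: Compound-loaded filter disks on LB agar lawns, DMSO as solvent, zone of inhibition around each disk read after overnight incubation at 37 °C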
# Description: Filter disks were provided as sterile filter paper (about 6 mm in diameter) and spotted with 20 μL of a selected compound. Each compound was initially dissolved in dimethylsulfoxide (DMSO); any subsequent dilutions were also made in DMSO. Each filter was placed on an LB agar plate spread with 100 μL of a bacterial culture that had been grown overnight in suitable LB broth. Plates were incubated overnight at 37° C., after which, the extent of growth inhibition around each filter disk was measured. Bacterial strains included Staphylococcus aureus (ATCC 25923), Pseudomonas aeruginosa PAO1, Bacillus subtilis W168 and Escherichia coli HB101. […] The latter two strains are non-pathogenic Gram-positive and Gram-negative bacterial strains, respectively.
# Escherichia coli HB101 [4] = test: Disk sensitivity test (modified Kirby-Bauer), E. coli;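 further: filter disk loaded with compound in DMSO laid on an LB agar bacterial lawn, kept overnight at 37 °C, then the inhibition zone around the disk is measured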
# [5] = test system: Staphylococcus aureus (ATCC 25923); test: Minimum inhibitory concentration in LB broth, S. aureus; details: for Relative to AgNO3: efficacy per mole from MIC values
# Bacillus subtilis W168 [6] = test: Minimum inhibitory concentration in LB broth, B. subtilis; details: for Relative to AgNO3: efficacy per mole from MIC values
# [7] = test system: Pseudomonas aeruginosa PAO1; test: Minimum inhibitory concentration in LB broth, P. aeruginosa; details: for Relative to AgNO3: efficacy per mole from MIC values
# Escherichia coli HB101 [8] = test: Minimum inhibitory concentration in LB broth, E. coli; details: for Relative to AgNO3: efficacy per mole from MIC values;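 on all read-outs here: broth dilution MIC, test compounds first taken up in DMSO, then serially diluted in LB medium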
# [9] = test system: Gram positive and Gram negative bacteria; test: Antimicrobial activity, summary of TABLES 16-18
# Description: The new class of fluorinated triazapentadiene compounds with and without metal complexation as described herein were analyzed for antibacterial activity against several bacterial strains (both Gram positive and Gram negative). Methods for antimicrobial analysis included a modified Kirby-Bauer method and a determination of their minimum inhibitory concentrations. In brief, the modified Kirby-Bauer method relied on placement of a filter disk impregnated with a desired compound on a solid growth medium. Bacteria were grown to a confluent lawn and the extent of growth inhibition was measured (e.g., as an extent/percentage of a clear zone on the disk and/or solid medium).
# For MIC assessment, compounds were initially dissolved in DMSO and serial dilutions of soluble compounds were made in LB broth.
structure (smiles),measurement,setting,value
"Fc1cccc(C(F)(F)F)c1N=C(N=C(Nc1c(F)cccc1C(F)(F)F)C(F)(F)C(F)(F)C(F)(F)F)C(F)(F)C(F)(F)C(F)(F)F [[N{(C3F7)C(2-F,6-(CF3)C6H3)N}2]H]",Diameter of the zone of growth inhibition,[1]; 5.7 × 10^0 mM,36.0 mm
same,Diameter of the zone of growth inhibition,[1]; 5.7 × 10^1 mM,47.5 mm
same,Diameter of the zone of growth inhibition,[1]; 5.7 × 10^−1 mM,34.0 mm
same,Diameter of the zone of growth inhibition,[1]; 5.7 × 10^−2 mM,9.0 mm
same,Diameter of the zone of growth inhibition,[1]; 5.7 × 10^−3 mM,8.0 mm
same,Diameter of the zone of growth inhibition,[1]; 5.7 × 10^−4 mM,6.0 (NZ) mm
same,Diameter of the zone of growth inhibition,[1]; 5.7 × 10^−5 mM,6.0 (NZ) mm
same,Diameter of the zone of growth inhibition,Bacillus subtilis W168 [2]; 5.7 × 10^0 mM,85.0 mm
same,Diameter of the zone of growth inhibition,Bacillus subtilis W168 [2]; 5.7 × 10^1 mM,100.0 mm
same,Diameter of the zone of growth inhibition,Bacillus subtilis W168 [2]; 5.7 × 10^−1 mM,50.0 mm
same,Diameter of the zone of growth inhibition,Bacillus subtilis W168 [2]; 5.7 × 10^−2 mM,30.0 mm
same,Diameter of the zone of growth inhibition,Bacillus subtilis W168 [2]; 5.7 × 10^−3 mM,13.5 mm
same,Diameter of the zone of growth inhibition,Bacillus subtilis W168 [2]; 5.7 × 10^−4 mM,7.0 mm
same,Diameter of the zone of growth inhibition,Bacillus subtilis W168 [2]; 5.7 × 10^−5 mM,8.0 mm
same,Diameter of the zone of growth inhibition,Bacillus subtilis W168 [2]; 5.7 × 10^−6 mM,8.0 mm
same,Diameter of the zone of growth inhibition,Bacillus subtilis W168 [2]; 5.7 × 10^−7 mM,7.5 mm
same,Diameter of the zone of growth inhibition,[3]; 5.7 × 10^0 mM,8.5 mm
same,Diameter of the zone of growth inhibition,[3]; 5.7 × 10^1 mM,9.0 mm
same,Diameter of the zone of growth inhibition,[3]; 5.7 × 10^−1 mM,8.0 mm
same,Diameter of the zone of growth inhibition,[3]; 5.7 × 10^−2 mM,8.0 mm
same,Diameter of the zone of growth inhibition,[3]; 5.7 × 10^−3 mM,8.0 mm
same,Diameter of the zone of growth inhibition,[3]; 5.7 × 10^−4 mM,7.0 mm
same,Diameter of the zone of growth inhibition,[3]; 5.7 × 10^−5 mM,6.0 (NZ) mm
same,Diameter of the zone of growth inhibition,Escherichia coli HB101 [4]; 5.7 × 10^0 mM,8.5 mm
same,Diameter of the zone of growth inhibition,Escherichia coli HB101 [4]; 5.7 × 10^1 mM,9.0 mm
same,Diameter of the zone of growth inhibition,Escherichia coli HB101 [4]; 5.7 × 10^−1 mM,8.0 mm
same,Diameter of the zone of growth inhibition,Escherichia coli HB101 [4]; 5.7 × 10^−2 mM,7.0 mm
same,Diameter of the zone of growth inhibition,Escherichia coli HB101 [4]; 5.7 × 10^−3 mM,7.0 mm
same,Diameter of the zone of growth inhibition,Escherichia coli HB101 [4]; 5.7 × 10^−4 mM,7.0 mm
same,Diameter of the zone of growth inhibition,Escherichia coli HB101 [4]; 5.7 × 10^−5 mM,7.0 mm
same,MIC,[5],1.55 μg/ml and 1.06 × 10^−3 mM
same,Relative to AgNO3,[5],34.71
same,MIC,Bacillus subtilis W168 [6],1.60 × 10^−1 μg/ml and 2.19 × 10^−4 mM
same,Relative to AgNO3,Bacillus subtilis W168 [6],671.23
same,MIC,[7],2912.70 μg/ml and 3.98 mM
same,Relative to AgNO3,[7],4.62 × 10^−3
same,MIC,Escherichia coli HB101 [8],2912.70 μg/ml and 3.98 mM
same,Relative to AgNO3,Escherichia coli HB101 [8],1.48 × 10^−2
same,antimicrobial activity (in words),[9],Effective
Fc1c(F)c(F)c(N=C(N=C([N]([Ag])c2c(F)c(F)c(F)c(F)c2F)C(F)(F)C(F)(F)C(F)(F)F)C(F)(F)C(F)(F)C(F)(F)F)c(F)c1F [[N{(C3F7)C(C6F5)N}2]Ag],Diameter of the zone of growth inhibition,[1]; 5.7 × 10^0 mM,33.0 mm
same,Diameter of the zone of growth inhibition,[1]; 5.7 × 10^1 mM,70.0 mm
same,Diameter of the zone of growth inhibition,[1]; 5.7 × 10^−1 mM,39.0 mm
same,Diameter of the zone of growth inhibition,[1]; 5.7 × 10^−2 mM,21.5 mm
same,Diameter of the zone of growth inhibition,[1]; 5.7 × 10^−3 mM,10.0 mm
same,Diameter of the zone of growth inhibition,[1]; 5.7 × 10^−4 mM,6.0 (NZ)^b mm
same,Diameter of the zone of growth inhibition,[1]; 5.7 × 10^−5 mM,6.0 (NZ) mm
same,Diameter of the zone of growth inhibition,[1]; 5.7 × 10^−6 mM,6.0 (NZ) mm
same,Diameter of the zone of growth inhibition,Bacillus subtilis W168 [2]; 5.7 × 10^0 mM,37.0 mm
same,Diameter of the zone of growth inhibition,Bacillus subtilis W168 [2]; 5.7 × 10^1 mM,47.0 mm
same,Diameter of the zone of growth inhibition,Bacillus subtilis W168 [2]; 5.7 × 10^−1 mM,38.0 mm
same,Diameter of the zone of growth inhibition,Bacillus subtilis W168 [2]; 5.7 × 10^−2 mM,22.0 mm
same,Diameter of the zone of growth inhibition,Bacillus subtilis W168 [2]; 5.7 × 10^−3 mM,11.0 mm
same,Diameter of the zone of growth inhibition,Bacillus subtilis W168 [2]; 5.7 × 10^−4 mM,7.5 mm
same,Diameter of the zone of growth inhibition,Bacillus subtilis W168 [2]; 5.7 × 10^−5 mM,6.0 (NZ) mm
same,Diameter of the zone of growth inhibition,Bacillus subtilis W168 [2]; 5.7 × 10^−6 mM,6.0 (NZ) mm
same,Diameter of the zone of growth inhibition,[3]; 5.7 × 10^0 mM,16.5 mm
same,Diameter of the zone of growth inhibition,[3]; 5.7 × 10^1 mM,27.0 mm
same,Diameter of the zone of growth inhibition,[3]; 5.7 × 10^−1 mM,12.0 mm
same,Diameter of the zone of growth inhibition,[3]; 5.7 × 10^−2 mM,8.0 mm
same,Diameter of the zone of growth inhibition,[3]; 5.7 × 10^−3 mM,7.5 mm
same,Diameter of the zone of growth inhibition,[3]; 5.7 × 10^−4 mM,6.0 (NZ) mm
same,Diameter of the zone of growth inhibition,[3]; 5.7 × 10^−5 mM,6.0 (NZ) mm
same,Diameter of the zone of growth inhibition,[3]; 5.7 × 10^−6 mM,6.0 (NZ) mm
same,Diameter of the zone of growth inhibition,Escherichia coli HB101 [4]; 5.7 × 10^0 mM,14.0 mm
same,Diameter of the zone of growth inhibition,Escherichia coli HB101 [4]; 5.7 × 10^1 mM,18.0 mm
same,Diameter of the zone of growth inhibition,Escherichia coli HB101 [4]; 5.7 × 10^−1 mM,11.0 mm
same,Diameter of the zone of growth inhibition,Escherichia coli HB101 [4]; 5.7 × 10^−2 mM,8.5 mm
same,Diameter of the zone of growth inhibition,Escherichia coli HB101 [4]; 5.7 × 10^−3 mM,8.0 mm
same,Diameter of the zone of growth inhibition,Escherichia coli HB101 [4]; 5.7 × 10^−4 mM,6.0 (NZ) mm
same,Diameter of the zone of growth inhibition,Escherichia coli HB101 [4]; 5.7 × 10^−5 mM,6.0 (NZ) mm
same,Diameter of the zone of growth inhibition,Escherichia coli HB101 [4]; 5.7 × 10^−6 mM,6.0 (NZ) mm
same,MIC,[5],1.80 μg/ml and 2.13 × 10^−3 mM
same,Relative to AgNO3,[5],34.45
same,MIC,Bacillus subtilis W168 [6],1.80 μg/ml and 2.13 × 10^−3 mM
same,Relative to AgNO3,Bacillus subtilis W168 [6],69.01
same,MIC,[7],23.69 μg/ml and 2.80 × 10^−2 mM
same,sensitivity of the bacteria to the compound (in words),[7],most sensitive
same,Relative to AgNO3,[7],6.57 × 10^−1
same,MIC,Escherichia coli HB101 [8],23.69 μg/ml and 2.80 × 10^−2 mM
same,sensitivity of the bacteria to the compound (in words),Escherichia coli HB101 [8],most sensitive
same,Relative to AgNO3,Escherichia coli HB101 [8],2.10
same,antimicrobial activity (in words),[9],Effective
"Fc1cccc(C(F)(F)F)c1N=C(N=C([N]([Ag])c1c(F)cccc1C(F)(F)F)C(F)(F)C(F)(F)C(F)(F)F)C(F)(F)C(F)(F)C(F)(F)F [[N{(C3F7)C(2-F,6-CF3C6H3)N}2]Ag]",Diameter of the zone of growth inhibition,[1]; 5.7 × 10^0 mM,14.0 mm
same,Diameter of the zone of growth inhibition,[1]; 5.7 × 10^1 mM,19.0 mm
same,Diameter of the zone of growth inhibition,[1]; 5.7 × 10^−1 mM,9.5 mm
same,Diameter of the zone of growth inhibition,[1]; 5.7 × 10^−2 mM,9.0 mm
same,Diameter of the zone of growth inhibition,[1]; 5.7 × 10^−3 mM,7.5 mm
same,Diameter of the zone of growth inhibition,[1]; 5.7 × 10^−4 mM,6.0 (NZ) mm
same,Diameter of the zone of growth inhibition,[1]; 5.7 × 10^−5 mM,6.0 (NZ) mm
same,Diameter of the zone of growth inhibition,[1]; 5.7 × 10^−6 mM,6.0 (NZ) mm
same,Diameter of the zone of growth inhibition,[1]; 5.7 × 10^−7 mM,6.0 (NZ) mm
same,Diameter of the zone of growth inhibition,Bacillus subtilis W168 [2]; 5.7 × 10^0 mM,131.0 mm
same,Diameter of the zone of growth inhibition,Bacillus subtilis W168 [2]; 5.7 × 10^1 mM,115.0 mm
same,Diameter of the zone of growth inhibition,Bacillus subtilis W168 [2]; 5.7 × 10^−1 mM,78.0 mm
same,Diameter of the zone of growth inhibition,Bacillus subtilis W168 [2]; 5.7 × 10^−2 mM,39.0 mm
same,Diameter of the zone of growth inhibition,Bacillus subtilis W168 [2]; 5.7 × 10^−3 mM,10.0 mm
same,Diameter of the zone of growth inhibition,Bacillus subtilis W168 [2]; 5.7 × 10^−4 mM,10.0 mm
same,Diameter of the zone of growth inhibition,Bacillus subtilis W168 [2]; 5.7 × 10^−5 mM,9.0 mm
same,Diameter of the zone of growth inhibition,Bacillus subtilis W168 [2]; 5.7 × 10^−6 mM,9.0 mm
same,Diameter of the zone of growth inhibition,Bacillus subtilis W168 [2]; 5.7 × 10^−7 mM,7.5 mm
same,Diameter of the zone of growth inhibition,[3]; 5.7 × 10^0 mM,15.0 mm
same,Diameter of the zone of growth inhibition,[3]; 5.7 × 10^1 mM,23.5 mm
same,Diameter of the zone of growth inhibition,[3]; 5.7 × 10^−1 mM,9.0 mm
same,Diameter of the zone of growth inhibition,[3]; 5.7 × 10^−2 mM,6.0 (NZ) mm
same,Diameter of the zone of growth inhibition,[3]; 5.7 × 10^−3 mM,6.0 (NZ) mm
same,Diameter of the zone of growth inhibition,Escherichia coli HB101 [4]; 5.7 × 10^0 mM,12.5 mm
same,Diameter of the zone of growth inhibition,Escherichia coli HB101 [4]; 5.7 × 10^1 mM,22.0 mm
same,Diameter of the zone of growth inhibition,Escherichia coli HB101 [4]; 5.7 × 10^−1 mM,10.0 mm
same,Diameter of the zone of growth inhibition,Escherichia coli HB101 [4]; 5.7 × 10^−2 mM,9.0 mm
same,Diameter of the zone of growth inhibition,Escherichia coli HB101 [4]; 5.7 × 10^−3 mM,8.0 mm
same,MIC,[5],8.78 × 10^−1 μg/ml and 1.05 × 10^−3 mM
same,Relative to AgNO3,[5],70.10
same,MIC,Bacillus subtilis W168 [6],8.70 × 10^−2 μg/ml and 1.04 × 10^−4 mM
same,Relative to AgNO3,Bacillus subtilis W168 [6],1413.46
same,MIC,[7],17.56 μg/ml and 2.1 × 10^−2 mM
same,sensitivity of the bacteria to the compound (in words),[7],most sensitive
same,Relative to AgNO3,[7],8.76 × 10^−1
same,MIC,Escherichia coli HB101 [8],8.78 μg/ml and 1.00 × 10^−2 mM
same,sensitivity of the bacteria to the compound (in words),Escherichia coli HB101 [8],most sensitive
same,Relative to AgNO3,Escherichia coli HB101 [8],5.89
same,antimicrobial activity (in words),[9],Effective
